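Cells were grown in 96-well plates and exposed to each compound for 48 hours at five concentrations; endpoints were interpolated linearly between bracketing concentrations, or set to the highest concentration if not reached. At the GI50, growth is halved. The concentration for full growth arrest is given as TGI.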
Columns and labels:
Test in all cases: growth of human tumour cells (NCI), 48 h
[1] = system: NCI-H226 lung
[2] = system: RPMI-8226 leukemia
[3] = system: HT29 colon
[4] = system: NCI-H522 lung
[5] = system: 786-0 renal
[6] = system: SK-MEL-28 melanoma
[7] = system: A549 NSCLC
[8] = system: SW-620 colon
[9] = system: K-562 leukemia
[10] = system: SK-MEL-2 melanoma
[11] = system: KM12 colon
[12] = system: U251 CNS
[13] = system: TK-10 renal
[14] = system: OVCAR-5 ovarian
[15] = system: HCC-2998 colon
[16] = system: SK-MEL-5 melanoma
[17] = system: SF-268 CNS
[18] = system: M19-MEL melanoma
[19] = system: ACHN renal
[20] = system: HCT-15 colon
[21] = system: DLD-1 colon
[22] = system: HCT-116 colon
[23] = system: SK-OV-3 ovarian
[24] = system: SN12C renal
[25] = system: CCRF-CEM leukemia
[26] = system: LXFL 529 NSCLC
[27] = system: HOP-18 NSCLC
[28] = system: OVCAR-8 ovarian
[29] = system: UO-31 renal
[30] = system: OVCAR-3 ovarian
[31] = system: SF-295 CNS
[32] = system: UACC-62 melanoma
[33] = system: SF-539 CNS
[34] = system: IGROV1 ovarian
[35] = system: CAKI-1 renal
[36] = system: LOX IMVI melanoma
[37] = system: OVCAR-4 ovarian
[38] = system: UACC-257 melanoma
[39] = system: MALME-3M melanoma
[40] = system: MOLT-4 leukemia
[41] = system: SNB-75 CNS
[42] = system: M14 melanoma
[43] = system: KM20L2 colon
[44] = system: HOP-92 NSCLC
[45] = system: SNB-19 CNS
[46] = system: HOP-62 NSCLC
[47] = system: NCI-H460 lung
[48] = system: RXF 393 renal
[49] = system: HL-60(TB) leukemia
[50] = system: COLO 205 colon
[51] = system: A498 renal
[52] = system: EKVX NSCLC
[53] = system: NCI-H23 lung
[54] = system: SR leukemia
[55] = system: RXF-631 renal
[56] = system: DMS 114 small cell lung
[57] = system: DMS 273 small cell lung
[58] = system: SNB-78 CNS

Compound: CC(=O)[CH-]C(=O)c1ccccc1.CC(=O)[CH-]C(=O)c1ccccc1.COc1cccc([O-])c1[O-].[Ti+4]
- GI50 [1]: 15.9 µM
- TGI [1]: 73 µM
- GI50 [2]: 57.1 µM
- TGI [2]: > 100 µM
- GI50 [3]: 64.5 µM
- TGI [3]: > 100 µM
- GI50 [4]: 17.2 µM
- TGI [4]: 31.7 µM
- GI50 [5]: 49 µM
- TGI [5]: > 100 µM
- GI50 [6]: 31 µM
- TGI [6]: > 100 µM
- GI50 [7]: > 100 µM
- TGI [7]: > 100 µM
- GI50 [8]: 52.6 µM
- TGI [8]: > 100 µM
- GI50 [9]: 31.6 µM
- TGI [9]: > 100 µM
- GI50 [10]: 24.8 µM
- TGI [10]: 62.4 µM
- GI50 [11]: 33.4 µM
- TGI [11]: > 100 µM
- GI50 [12]: 25.7 µM
- TGI [12]: > 100 µM
- GI50 [13]: > 100 µM
- TGI [13]: > 100 µM
- GI50 [14]: > 100 µM
- TGI [14]: > 100 µM
- GI50 [15]: 90.2 µM
- TGI [15]: > 100 µM
- GI50 [16]: 93.3 µM
- TGI [16]: > 100 µM
- GI50 [17]: 47.6 µM
- TGI [17]: > 100 µM
- GI50 [18]: 32.4 µM
- TGI [18]: 89.7 µM
- GI50 [19]: 94.9 µM
- TGI [19]: > 100 µM
- GI50 [20]: 50.2 µM
- TGI [20]: > 100 µM
- GI50 [21]: 69.2 µM
- TGI [21]: > 100 µM
- GI50 [22]: 32.1 µM
- TGI [22]: > 100 µM
- GI50 [23]: 53.9 µM
- TGI [23]: > 100 µM
- GI50 [24]: 49.1 µM
- TGI [24]: > 100 µM
- GI50 [25]: 6.42 µM
- TGI [25]: > 100 µM
- GI50 [26]: 34.3 µM
- TGI [26]: > 100 µM
- GI50 [27]: 25.9 µM
- TGI [27]: 63.5 µM
- GI50 [28]: 42.4 µM
- TGI [28]: > 100 µM
- GI50 [29]: > 100 µM
- TGI [29]: > 100 µM
- GI50 [30]: 40.5 µM
- TGI [30]: > 100 µM
- GI50 [31]: 70.4 µM
- TGI [31]: > 100 µM
- GI50 [32]: 39.9 µM
- TGI [32]: > 100 µM
- GI50 [33]: 24.4 µM
- TGI [33]: 65.6 µM
- GI50 [34]: > 100 µM
- TGI [34]: > 100 µM
- GI50 [35]: > 100 µM
- TGI [35]: > 100 µM
- GI50 [36]: 25 µM
- TGI [36]: > 100 µM
- GI50 [37]: 54.3 µM
- TGI [37]: > 100 µM
- GI50 [38]: > 100 µM
- TGI [38]: > 100 µM
- GI50 [39]: 33.4 µM
- TGI [39]: > 100 µM
- GI50 [40]: 33.1 µM
- TGI [40]: > 100 µM
- GI50 [41]: 43.5 µM
- TGI [41]: > 100 µM
- GI50 [42]: 64.9 µM
- TGI [42]: > 100 µM
- GI50 [43]: 52.2 µM
- TGI [43]: > 100 µM
- GI50 [44]: 57.8 µM
- TGI [44]: > 100 µM
- GI50 [45]: 64.3 µM
- TGI [45]: > 100 µM
- GI50 [46]: 71.4 µM
- TGI [46]: > 100 µM
- GI50 [47]: 52 µM
- TGI [47]: > 100 µM
- GI50 [48]: 30 µM
- TGI [48]: > 100 µM
- GI50 [49]: 20.3 µM
- TGI [49]: 98.2 µM
- GI50 [50]: 37.9 µM
- TGI [50]: > 100 µM
- GI50 [51]: 72.5 µM
- TGI [51]: > 100 µM

Compound: COc1ccc(CN2C(=O)C(Cc3cc(OC)c(OC)c(C)c3OC)NC(=O)/C2=C/c2cc(OC)c(OC)c(C)c2OC)cc1 (stereo not given)
- TGI [1]: 60.2 µM
- TGI [2]: 70.2 µM
- TGI [3]: 66.2 µM
- TGI [4]: 50 µM
- TGI [5]: > 100 µM
- TGI [6]: > 100 µM
- TGI [52]: > 100 µM
- TGI [7]: > 100 µM
- TGI [8]: > 100 µM
- TGI [9]: > 100 µM
- TGI [10]: 43.2 µM
- TGI [11]: > 100 µM
- TGI [53]: > 100 µM
- TGI [12]: > 100 µM
- TGI [13]: 83.1 µM
- TGI [14]: > 100 µM
- TGI [15]: 90.9 µM
- TGI [16]: 34.5 µM
- TGI [17]: > 100 µM
- TGI [18]: 37.7 µM
- TGI [19]: > 100 µM
- TGI [21]: > 100 µM
- TGI [22]: 60.7 µM
- TGI [23]: > 100 µM
- TGI [24]: > 100 µM
- TGI [25]: 71.1 µM
- TGI [26]: > 100 µM
- TGI [27]: 65.2 µM
- TGI [28]: > 100 µM
- TGI [54]: 60.7 µM
- TGI [29]: 74 µM
- TGI [30]: 82.2 µM
- TGI [31]: > 100 µM
- TGI [32]: > 100 µM
- TGI [33]: > 100 µM
- TGI [34]: > 100 µM
- TGI [36]: > 100 µM
- TGI [37]: 82.5 µM
- TGI [38]: > 100 µM
- TGI [39]: 67.8 µM
- TGI [40]: 60.6 µM
- TGI [41]: > 100 µM
- TGI [42]: 96.9 µM
- TGI [43]: 59.2 µM
- TGI [44]: 67.7 µM
- TGI [46]: > 100 µM
- TGI [47]: 57 µM
- TGI [48]: 71.2 µM
- TGI [55]: > 100 µM
- TGI [49]: 45.8 µM
- TGI [50]: 47.4 µM
- TGI [51]: 97.6 µM
- TGI [56]: 97.3 µM

Compound: CC1(C)C(c2ccccc2)=NN(O)c2ccccc21
- TGI [1]: > 100 µM
- TGI [2]: > 100 µM
- TGI [3]: > 100 µM
- TGI [4]: > 100 µM
- TGI [5]: > 100 µM
- TGI [6]: > 100 µM
- TGI [52]: > 100 µM
- TGI [7]: > 100 µM
- TGI [8]: > 100 µM
- TGI [9]: > 100 µM
- TGI [10]: > 100 µM
- TGI [11]: > 100 µM
- TGI [53]: > 100 µM
- TGI [12]: > 100 µM
- TGI [13]: > 100 µM
- TGI [14]: > 100 µM
- TGI [15]: > 100 µM
- TGI [16]: > 100 µM
- TGI [17]: > 100 µM
- TGI [18]: > 100 µM
- TGI [20]: > 100 µM
- TGI [21]: > 100 µM
- TGI [22]: > 100 µM
- TGI [23]: > 100 µM
- TGI [25]: > 100 µM
- TGI [26]: > 100 µM
- TGI [57]: > 100 µM
- TGI [27]: > 100 µM
- TGI [58]: > 100 µM
- TGI [28]: > 100 µM
- TGI [30]: > 100 µM
- TGI [31]: > 100 µM
- TGI [32]: > 100 µM
- TGI [33]: > 100 µM
- TGI [34]: > 100 µM
- TGI [35]: > 100 µM
- TGI [37]: > 100 µM
- TGI [38]: > 100 µM
- TGI [39]: > 100 µM
- TGI [40]: > 100 µM
- TGI [41]: > 100 µM
- TGI [42]: > 100 µM
- TGI [43]: > 100 µM
- TGI [45]: > 100 µM
- TGI [46]: > 100 µM
- TGI [47]: > 100 µM
- TGI [48]: > 100 µM
- TGI [49]: > 100 µM
- TGI [50]: > 100 µM
- TGI [51]: > 100 µM

Reference: PubChem BioAssay (NCI)
